According to patent US20100137313A1 (ASTRAZENECA AB, priority 2008, published 2010):

Biological target: S. pneumoniae Topoisomerase IV ATPase (ParE) (Streptococcus pneumoniae serotype 4, UniProt Q59961)
Test: S. pneumoniae Topoisomerase IV ATPase inhibition
Type: biochemical
Conditions: values marked * are an average of two or more data points, read-out: % Inh (13 μM) of S. pneumoniae Topoisomerase IV ATPase
Method in brief: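 Phosphate release by ParE ATPase from S. pneumoniae read colorimetrically (malachite green, 650 nm), enzyme 1.25 nM, ATP 160 μM, salmon sperm DNA present, buffer 20 mM Tris pH 8.0 with 8 mM MgCl2. IC50 over 10 compound concentrations, EDTA (20 μM) and DMSO controls defining inhibition range.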

S. pneumoniae Topoisomerase IV ATPase (ParE), sequence (Q59961 whole entry): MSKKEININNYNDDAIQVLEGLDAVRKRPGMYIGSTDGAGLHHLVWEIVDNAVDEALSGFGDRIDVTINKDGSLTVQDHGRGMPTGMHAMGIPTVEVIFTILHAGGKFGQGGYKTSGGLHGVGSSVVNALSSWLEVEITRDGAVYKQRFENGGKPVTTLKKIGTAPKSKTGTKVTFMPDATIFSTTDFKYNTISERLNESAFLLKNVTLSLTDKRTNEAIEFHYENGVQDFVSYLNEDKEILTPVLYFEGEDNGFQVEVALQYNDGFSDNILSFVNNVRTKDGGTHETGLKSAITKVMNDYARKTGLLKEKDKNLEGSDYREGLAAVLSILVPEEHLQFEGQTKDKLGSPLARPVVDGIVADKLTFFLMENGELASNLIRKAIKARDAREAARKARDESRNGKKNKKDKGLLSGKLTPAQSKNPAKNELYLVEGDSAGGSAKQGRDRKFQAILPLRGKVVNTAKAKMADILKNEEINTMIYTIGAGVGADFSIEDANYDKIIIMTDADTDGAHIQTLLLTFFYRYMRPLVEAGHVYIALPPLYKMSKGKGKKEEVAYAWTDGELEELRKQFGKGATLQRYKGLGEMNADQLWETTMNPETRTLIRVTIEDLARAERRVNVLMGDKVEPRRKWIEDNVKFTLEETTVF

| Structure (SMILES) | inhibition at 13 µM |
| --- | --- |
| Cc1cc(C(F)(F)F)nn1-c1nc(Nc2ccc(F)c(Cl)c2)ncc1-c1cnc(OC2CCN(C)C2)c(C(=O)O)c1 (stereo not drawn) [Example 787, 5-{2-[(3-chloro-4-fluorophenyl)amino]-4-[5-methyl-3-(trifluoromethyl)-1H-pyrazol-1-yl]pyrimidin-5-yl}-2-[(1-methylpyrrolidin-3-yl)oxy]pyridine-3-carboxylic acid] | 97% |
| Fc1ccc(Nc2ncc(-c3cncnc3)c(NCc3ccncc3)n2)cc1Cl [Example 40, N^2-(3-chloro-4-fluorophenyl)-N^4-(pyridin-4-ylmethyl)-5-pyrimidin-5-ylpyrimidine-2,4-diamine] | 72.4% |
| O=C(O)c1cncc(-c2cnc(Nc3ccc(F)c(C(F)(F)F)c3)nc2N2CCOCC2)c1 [Example 437] | 75% |
| COCCCNc1nc(Nc2ccc(F)c(Cl)c2)ncc1-c1nc(-c2ccccn2)c(C(=O)O)s1 [Example 511, 2-{2-[(3-chloro-4-fluorophenyl)amino]-4-[(3-methoxypropyl)amino]pyrimidin-5-yl}-4-(pyridin-2-yl)-1,3-thiazole-5-carboxylic acid] | 100% |
| CC(=O)Nc1ccn(-c2nc(Nc3ccc(F)c(Cl)c3)ncc2-c2cncc(C(N)=O)c2)n1 [Example 541, 5-{4-[3-(acetylamino)-1H-pyrazol-1-yl]-2-[(3-chloro-4-fluorophenyl)amino]pyrimidin-5-yl}pyridine-3-carboxamide] | 97% |
| O=C(O)c1cncc(-c2cnc(Nc3ccc(F)c(Cl)c3)nc2NCc2ccncc2)c1 [Example 224, 5-{2-(3-Chloro-4-fluoro-phenylamino)-4-[(pyridin-4-ylmethyl)-amino]-pyrimidin-5-yl}-nicotinic acid] | 78.5% |
| CCOC(=O)/C=C/c1cccc(-c2cnc(Nc3ccc(F)c(Cl)c3)nc2N2CCOC(CO)C2)c1 (stereo not drawn) [Example 977, (E)-ethyl 3-(3-(2-(3-chloro-4-fluorophenylamino)-4-(2-(hydroxymethyl)morpholino)pyrimidin-5-yl)phenyl)acrylate] | 74% |
| O=C1NC(=O)c2cc(-c3cnc(Nc4ccc(F)c(Cl)c4)nc3-n3ccc(C(F)(F)F)n3)ccc21 [Example 1009, 5-(2-(3-Chloro-4-fluorophenylamino)-4-(3-(trifluoromethyl)-1H-pyrazol-1-yl)pyrimidin-5-yl)isoindole-1,3-dione] | 92% |
| NC(=O)CCNc1nc(Nc2ccc(F)c(Cl)c2)ncc1-c1cncc(C(=O)O)c1 [Example 226, 5-[4-(2-Carbamoyl-ethylamino)-2-(3-chloro-4-fluoro-phenylamino)-pyrimidin-5-yl]-nicotinic acid] | 79.5% |
| Cc1ccc(F)c(Nc2ncc(-c3cncc(C(=O)O)c3)c(-n3ccc(C(F)(F)F)n3)n2)c1 [Example 772, 5-{2-[(2-fluoro-5-methylphenyl)-amino]-4-[3-(trifluoromethyl)-1H-pyrazol-1-yl]pyrimidin-5-yl}pyridine-3-carboxylic acid] | 81% |
| O=C(O)c1cc(-c2cnc(Nc3ccc(F)c(Cl)c3)nc2N2CCOCC2)ccn1 [Example 493, 4-{2-[(3-chloro-4-fluorophenyl)amino]-4-(morpholin-4-yl)pyrimidin-5-yl}pyridine-2-carboxylic acid] | 9% |
| COC(=O)CC(=O)c1cncc(-c2cnc(Nc3ccc(F)c(Cl)c3)nc2-n2nc(C(F)(F)F)cc2C)c1 [Example 1041, Methyl 3-(5-(2-(3-chloro-4-fluorophenylamino)-4-(5-methyl-3-(trifluoromethyl)-1H-pyrazol-1-yl)pyrimidin-5-yl)pyridin-3-yl)-3-oxopropanoate] | 100% |
| Cc1cc(C(F)(F)F)nn1-c1nc(Nc2ccc(F)c(Cl)c2)ncc1-c1cncc(C(=O)O)c1 [Example 319, 5-{2-[(3-chloro-4-fluorophenyl)amino]-4-[5-methyl-3-(trifluoromethyl)-1H-pyrazol-1-yl]pyrimidin-5-yl}pyridine-3-carboxylic acid] | 90.6% |
| CCC(C)Nc1nc(Nc2ccc(F)c(Cl)c2)ncc1-c1cc2ccccc2o1 (stereo not drawn) [Example 1108, 5-(1-benzofuran-2-yl)-N′-butan-2-yl-N-(3-chloro-4-fluorophenyl)pyrimidine-2,4-diamine] | 18% |
| O=C(O)c1cncc(-c2cnc(Nc3ccc(F)c(Cl)c3)nc2N2CCOC(CO)C2)c1 (stereo not drawn) [Example 1060] | 87% |
| Cc1cc(C(F)(F)F)nn1-c1nc(Nc2ccc3c(c2)CCC3)ncc1-c1cccc(/C=C/C(=O)O)c1 [Example 656, (2E)-3-(3-{2-(2,3-dihydro-1H-inden-5-ylamino)-4-[5-methyl-3-(trifluoromethyl)-1H-pyrazol-1-yl]pyrimidin-5-yl}phenyl)prop-2-enoic acid] | 78% |
| O=C(O)/C=C/c1cccc(-c2cnc(Nc3ccc(F)c(F)c3)nc2N2CCOCC2)c1 [Example 350, (E)-3-(3-(2-(3,4-difluorophenylamino)-4-morpholinopyrimidin-5-yl)phenyl)acrylic acid] | 69% |
| O=C(O)/C=C/c1cccc(-c2cnc(Nc3ccc(F)c(Cl)c3)nc2NCCc2cn[nH]c2)c1 [Example 268, (2E)-3-[3-(2-[(3-chloro-4-fluorophenyl)amino]-4-{[2-(1H-pyrazol-4-yl)ethyl]amino}pyrimidin-5-yl)phenyl]prop-2-enoic acid] | 83% |
| COc1cc(Nc2ncc(-c3cnc(OC)c(-c4nnn[nH]4)c3)c(-n3nc(C(F)(F)F)cc3C)n2)cc(OC)c1 [Example 873, N-(3,5-dimethoxyphenyl)-5-(6-methoxy-5-(1H-tetrazol-5-yl)pyridin-3-yl)-4-(5-methyl-3-(trifluoromethyl)-1H-pyrazol-1-yl)pyrimidin-2-amine] | 100% |
| O=C(O)C1CCN(c2cccc(-c3cnc(Nc4ccc(F)c(Cl)c4)nc3-n3ccc(C(F)(F)F)n3)c2)C1 (stereo not drawn) [Example 604, 1-(3-{2-[(3-chloro-4-fluorophenyl)amino]-4-[3-(trifluoromethyl)-1H-pyrazol-1-yl]pyrimidin-5-yl}phenyl)pyrrolidine-3-carboxylic acid] | 100% |
| CCOC(=O)c1cncc(-c2cnc(Nc3ccc(F)c(Cl)c3)nc2N[C@H](C)C(=O)OC)c1 [Example 113, ethyl 5-[2-[(3-chloro-4-fluorophenyl)amino]-4-[[(2R)-1-methoxy-1-oxopropan-2-yl]amino]pyrimidin-5-yl]pyridine-3-carboxylate] | 34.3% |
| COc1cc(Nc2ncc(-c3cnc(OCCCS(C)(=O)=O)c(C(=O)NS(C)(=O)=O)c3)c(-n3ccc(C(F)(F)F)n3)n2)cc(OC)c1 [Example 971, (2-(3,5-dimethoxyphenylamino)-4-(3-(trifluoromethyl)-1H-pyrazol-1-yl)pyrimidin-5-yl)-N-(methylsulfonyl)-2-(3-(methylsulfonyl)propoxy)nicotinamide] | 100% |
| CCC1COC(C)CN1c1nc(Nc2ccc(F)c(Cl)c2)ncc1-c1cncc(C(=O)O)c1 (stereo not drawn) [Example 1058, 5-(2-(3-Chloro-4-fluorophenylamino)-4-(5-ethyl-2-methylmorpholino)pyrimidin-5-yl)nicotinic acid] | 87% |
| COc1cc(F)cc(Nc2ncc(-c3cc(C(=O)O)c(=O)n(C)c3)c(-n3ccc(C(F)(F)F)n3)n2)c1 [Example 920, 5-(2-(3-fluoro-5-methoxyphenylamino)-4-(3-(trifluoromethyl)-1H-pyrazol-1-yl)pyrimidin-5-yl)-1-methyl-2-oxo-1,2-dihydropyridine-3-carboxylic acid] | 100% |
